In patent US20250171511A1, “ANTIVIRAL PEPTIDES AND METHODS OF USE THEREOF” (Versitech Limited, priority 2021, published 2025):
“Also recorded” adds a separate entry of the source. Like-named read-outs stand apart in the source and are kept apart here. Where no end group is shown, it is not given here. 4MPA = not defined here

How the values were obtained:
[1] = system: SARS-CoV-2; experiment: Viral entry fluorescence assay; type: cell-based
[2] = system: SARS-CoV-2 (B.1.163); experiment: Post-exposure antiviral activity in hamsters, B.1.163; conditions: hamster, in vivo
[3] = ELISA binding of 4H30 to heparan sulfate; conditions: compared with BSA
[4] = system: SARS-CoV-2; experiment: Nucleoprotein (NP) immunofluorescence assay; type: cell-based; conditions: VeroE6; virus pretreated; compared with untreated virus
[5] = system: SARS-CoV-2 (B.1.1.63); experiment: Pre-exposure antiviral activity in hamsters; type: in vivo, hamster
[6] = system: SARS-CoV-2; experiment: Viral release assay; type: cell-based
[7] = ELISA binding of 4H30 to chondroitin sulfate; conditions: compared with BSA
[8] = system: fusion mediated by spike-Calu-3 cells; experiment: Spike mediated cell fusion assay with Calu-3 cells; type: cell-based; conditions: TMPRSS2 pathway
[9] = system: spike-ACE2 mediated fusion; type: cell-based; conditions: endocytosis pathway
[10] = system: SARS-CoV-2; experiment: SARS-CoV-2 replication in Calu-3 cells pretreated by 4H30; type: cell-based

## GAICHPVFCPRRYKQIGTCGLPGTKCCKKP-4MPA (cysteine pairing not given here; reading uncertain; also: printed as GAICHPVFCPRRYKQIGTCGLPGTKCCKKP-4MPA) [Peptide 4H30]
[1]
  viral clustering and entry: did not cluster viral particles and did not block viral entry
[1]; virus pretreated, Calu-3 and VeroE6 cells
  viral clustering and entry: cross-link SARS-CoV-2 to form big viral clusters on Calu-3 and VeroE6 cell membrane without viral entry
[2]
  SARS-CoV-2 replication in lungs: significantly inhibit
[3]
  binding to heparan sulfate (HS): effectively bind
[4]
  anti-NP staining, viral replication: viral replication was significantly inhibited and restricted in very few cells
[5]; 4H30-0.05
  syncytia and epithelial cell disorder in bronchial tree: not found
[5]; hamster, in vivo
  SARS-CoV-2 replication in lungs: significantly inhibited SARS-CoV-2 replication
  antiviral activity: did not show antiviral activity
  reduction of viral replication: 2.3 fold
  viral replication in lungs: significantly inhibited viral replication
[6]
  intracellular replicative process: not on the intracellular replicative process
  viral release, viral load in supernatants: significantly inhibit viral release; also recorded: significantly inhibited SARS-CoV-2 release
[6]; 4H30 pretreated by CS or HS
  antiviral activity of 4H30 on viral release: significantly reduced
[6]; 4H30 with BSA
  inhibitory activity of 4H30 on SARS-CoV-2 release: did not significantly affect
[7]
  binding to chondroitin sulfate (CS): effectively bind
[8]
  fusion mediated by spike-Calu-3 cells: did not inhibit
[9]
  spike-ACE2 mediated cell fusion: blocking of spike-ACE2 mediated fusion
[10]
  SARS-CoV-2 replication: did not increase SARS-CoV-2 replication
